Results from patent publication US6737383B1, “Herbicidal oxadiazolidines” (priority 1999, dated 2004).

Experiments:
wild oat [1] = test: Test B pre/postemergence wild oat; type: in vivo, Avena fatua
Summary of the method: (§1)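 Response is a visual 0-to-10 score relative to untreated plants, where 0 means no effect and 10 means complete control, taken twelve to sixteen days after application. Treatments went onto soil at planting and onto foliage of 1- to 4-leaf plants, using a surfactant-containing non-phytotoxic solvent.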

green foxtail = test: Test E green foxtail; type: in vivo, Setaria viridis; details: Preemergence
winter wheat [2] = test: Test E winter wheat; type: in vivo, Triticum aestivum; details: Postemergence
Summary of the method: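 Compound formulated with surfactant in a non-phytotoxic solvent (postemergence: young 1- to 4-leaf plants); held in greenhouse approx. 21–28 days; visual assessment against untreated plants.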

winter barley = test: Test E winter barley; type: in vivo, Hordeum vulgare; details: Preemergence
blackgrass = test: Test E blackgrass; type: in vivo, Alopecurus myosuroides; details: Preemergence
morningglory = test: Test B pre/postemergence morningglory; type: in vivo, Ipomoea hederacea
Summary of the method: as §1

winter wheat [3] = test: Test E winter wheat; type: in vivo, Triticum aestivum; details: Preemergence
pigweed = test: Test B pre/postemergence pigweed; type: in vivo, Amaranthus retroflexus
Summary of the method: as §1

Italian ryegrass = test: Test E Italian ryegrass; type: in vivo, Lolium multiflorum; details: Preemergence
wild oat [4] = test: Test E wild oat; type: in vivo, Avena fatua; details: Preemergence
[5] = Postemergence, Rate 31 g/ha, visual rating, scale 0 to 10 (0 no effect, 10 complete control)
[6] = Preemergence, Rate 31 g/ha, visual rating, scale 0 to 10 (0 no effect, 10 complete control)
[7] = Preemergence, Rate 62 g/ha, scale of 0 to 10 where 0 is no effect and 10 is complete control
[8] = Preemergence, Rate 250 g/ha, scale of 0 to 10 where 0 is no effect and 10 is complete control
[9] = Rate 62 g/ha, Postemergence, scale 0 to 10 (0 no effect, 10 complete control)
[10] = Rate 125 g/ha, Postemergence, scale of 0 to 10 where 0 is no effect and 10 is complete control
[11] = Rate 250 g/ha, Postemergence, scale of 0 to 10 where 0 is no effect and 10 is complete control
[12] = Rate 125 g/ha, 0 to 100 scale (0 no effect, 100 complete control)
[13] = Rate 125 g/ha, Preemergence, scale of 0 to 10 where 0 is no effect and 10 is complete control
[14] = Postemergence, Rate 62 g/ha, scale 0 to 10, 0 is no effect, 10 is complete control
[15] = Postemergence, Rate 250 g/ha, scale 0 to 10, 0 no effect, 10 complete control
[16] = Preemergence, Rate 62 g/ha, scale 0 to 10 (0 no effect, 10 complete control)
[17] = Preemergence, Rate 125 g/ha, scale 0 to 10 (0 no effect, 10 complete control)
[18] = Preemergence, Rate 500 g/ha, scale 0 (no effect) to 10 (complete control)
[19] = Rate 125 g/ha, Postemergence, scale 0 to 10, 0 no effect, 10 complete control
[20] = Rate 500 g/ha, Postemergence, scale 0 to 10, 0 no effect, 10 complete control
[21] = Rate 500 g/ha, 0 to 100 scale where 0 is no effect and 100 is complete control
[22] = Rate 1000 g/ha, 0 to 100 scale where 0 is no effect and 100 is complete control

## CCOCn1c(=O)on(C(=O)N(c2ccc(F)cc2)C(C)C)c1=O [Compound 295]
Wild oat [1]; [5]
  Wild oats plant response rating: 0
Wild oat [1]; [6]
  Wild oats plant response rating: 0
Wild oat [1]; [7]
  Wild oats plant response rating: 2
Wild oat [1]; [8]
  Wild oats plant response rating: 9
Wild oat [1]; [9]
  Wild oats plant response rating: 0
Wild oat [1]; [10]
  Wild oats plant response rating: 0
Wild oat [1]; [11]
  Plant response rating, Wild oats: 2
Green foxtail; [12]
  Plant response rating, Green foxtail: 50
Green foxtail; Rate 250 g/ha
  Green foxtail plant response rating (0 to 100 scale): 100
Winter wheat [2]; Rate 125 g/ha, 0 to 100 scale, 0 is no effect, 100 is complete control
  Plant response rating, Wheat (winter): 30
Winter wheat [2]; Rate 250 g/ha, 0 to 100 scale where 0 is no effect and 100 is complete control
  Wheat (winter) plant response rating: 50
Winter barley; [12]
  Plant response rating, Barley (winter): 20
Winter barley; Rate 250 g/ha
  Barley (winter) plant response rating (0 to 100 scale): 30
blackgrass; [12]
  Plant response rating, Blackgrass: 0
blackgrass; Rate 250 g/ha
  Blackgrass plant response rating (0 to 100 scale): 10
morningglory; [5]
  Morningglory plant response rating: 1
morningglory; [6]
  Morningglory plant response rating: 0
morningglory; [7]
  Morningglory plant response rating: 0
morningglory; [8]
  Morningglory plant response rating: 0
morningglory; [9]
  Morningglory plant response rating: 1
morningglory; [10]
  Morningglory plant response rating: 5
morningglory; [13]
  Morningglory plant response rating: 0
morningglory; [11]
  Plant response rating, Morningglory: 7
Winter wheat [3]; [12]
  Plant response rating, Wheat (winter): 40
Winter wheat [3]; Rate 250 g/ha
  Wheat (winter) plant response rating (0 to 100 scale): 60
pigweed; [5]
  Redroot pigweed plant response rating: 0
pigweed; [6]
  Redroot pigweed plant response rating: 0
pigweed; [7]
  Redroot pigweed plant response rating: 3
pigweed; [8]
  Redroot pigweed plant response rating: 6
pigweed; [9]
  Redroot pigweed plant response rating: 0
pigweed; [10]
  Redroot pigweed plant response rating: 5
pigweed; [13]
  Redroot pigweed plant response rating: 6
pigweed; [11]
  Plant response rating, Redroot pigweed: 7
Italian ryegrass; [12]
  Plant response rating, I. Ryegrass: 40
Italian ryegrass; Rate 250 g/ha
  I. Ryegrass plant response rating (0 to 100 scale): 50
Wild oat [4]; [12]
  Plant response rating, Wild oat: 0
Wild oat [4]; Rate 250 g/ha
  Wild oat plant response rating (0 to 100 scale): 10

## CC(C)N(C(=O)n1oc(=O)n(Cc2cccs2)c1=O)c1ccc(F)cc1F [Compound 86]
Wild oat [1]; [14]
  Wild oats plant response rating: 0
Wild oat [1]; [15]
  Wild oats plant response rating: 0
Wild oat [1]; [16]
  Wild oats plant response rating: 0
Wild oat [1]; [17]
  Plant response rating, Wild oats: 0
Wild oat [1]; [8]
  Plant response rating, Wild oats: 4
Wild oat [1]; [18]
  Wild oats plant response rating: 5
Wild oat [1]; [19]
  Wild oats plant response rating: 0
Wild oat [1]; [20]
  Wild oats plant response rating: 0
Green foxtail; Rate 250 g/ha, 0 to 100 scale
  Plant response rating, Green foxtail: 40
Green foxtail; [21]
  Plant response rating, Green foxtail: 55
Green foxtail; [22]
  Plant response rating, Green foxtail: 100
Winter wheat [2]; Rate 250 g/ha, 0 to 100 scale (0 no effect, 100 complete control)
  Plant response rating, Wheat (winter): 55
Winter wheat [2]; Rate 1000 g/ha, 0 to 100 scale, 0 is no effect and 100 is complete control
  Plant response rating, Wheat (winter): 60
Winter wheat [2]; Rate 500 g/ha, 0 to 100 scale, 0 no effect, 100 complete control
  Plant response rating, Wheat (winter): 70
Winter barley; Rate 250 g/ha, 0 to 100 scale
  Plant response rating, Barley (winter): 70
Winter barley; [21]
  Plant response rating, Barley (winter): 80
Winter barley; [22]
  Plant response rating, Barley (winter): 70
blackgrass; Rate 250 g/ha, 0 to 100 scale
  Plant response rating, Blackgrass: 60
blackgrass; [21]
  Plant response rating, Blackgrass: 55
blackgrass; [22]
  Plant response rating, Blackgrass: 65
morningglory; [14]
  Morningglory plant response rating: 4
morningglory; [15]
  Morningglory plant response rating: 7
morningglory; [16]
  Morningglory plant response rating: 0
morningglory; [17]
  Plant response rating, Morningglory: 0
morningglory; [8]
  Plant response rating, Morningglory: 0
morningglory; [18]
  Morningglory plant response rating: 0
morningglory; [19]
  Morningglory plant response rating: 7
morningglory; [20]
  Morningglory plant response rating: 8
Winter wheat [3]; Rate 250 g/ha, 0 to 100 scale
  Plant response rating, Wheat (winter): 60
Winter wheat [3]; [21]
  Plant response rating, Wheat (winter): 40
Winter wheat [3]; [22]
  Plant response rating, Wheat (winter): 65
pigweed; [14]
  Redroot pigweed plant response rating: 0
pigweed; [15]
  Redroot pigweed plant response rating: 5
pigweed; [16]
  Redroot pigweed plant response rating: 2
pigweed; [17]
  Plant response rating, Redroot pigweed: 4
pigweed; [8]
  Plant response rating, Redroot pigweed: 8
pigweed; [18]
  Redroot pigweed plant response rating: 8
pigweed; [19]
  Redroot pigweed plant response rating: 0
pigweed; [20]
  Redroot pigweed plant response rating: 7
Italian ryegrass; Rate 250 g/ha, 0 to 100 scale
  Plant response rating, I. Ryegrass: 30
Italian ryegrass; [21]
  Plant response rating, I. Ryegrass: 50
Italian ryegrass; [22]
  Plant response rating, I. Ryegrass: 60
Wild oat [4]; [21]
  Plant response rating, Wild oat: 60
Wild oat [4]; [22]
  Plant response rating, Wild oat: 70
